Article PMC10223470 (Molecules, 2023)
Like-named read-outs stand apart in the source and are kept apart here.

Assays:
[1] = biological target: T1, human dopamine D1 receptor (Homo sapiens, UniProt P21728); details: ref [10]; cited from earlier work
T1 construct: expressed in transfected cells; host or cells: CHO-K1

human 5-HT1A receptor [2] = biological target: T2, human 5-HT1A receptor (Homo sapiens, UniProt P08908); details: ref [10]; cited from earlier work
T2 construct: expressed in transfected cells; host or cells: HEK293
T2 sequence (P08908 1-422): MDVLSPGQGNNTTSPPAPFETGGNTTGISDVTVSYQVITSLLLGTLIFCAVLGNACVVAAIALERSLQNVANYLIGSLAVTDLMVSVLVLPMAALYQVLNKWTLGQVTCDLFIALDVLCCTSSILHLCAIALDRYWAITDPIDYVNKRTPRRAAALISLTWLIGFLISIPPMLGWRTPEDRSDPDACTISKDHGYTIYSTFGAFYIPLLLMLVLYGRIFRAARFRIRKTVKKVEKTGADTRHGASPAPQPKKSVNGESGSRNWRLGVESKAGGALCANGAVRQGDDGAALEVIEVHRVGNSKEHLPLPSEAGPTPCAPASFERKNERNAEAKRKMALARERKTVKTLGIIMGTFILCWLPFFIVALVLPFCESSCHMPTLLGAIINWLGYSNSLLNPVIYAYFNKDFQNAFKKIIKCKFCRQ

[3] = biological target: T3, human dopamine D3 receptor (Homo sapiens, UniProt P35462); details: ref [10]; cited from earlier work
T3 construct: expressed in transfected cells; host or cells: CHO-K1
T3 sequence (P35462 whole entry): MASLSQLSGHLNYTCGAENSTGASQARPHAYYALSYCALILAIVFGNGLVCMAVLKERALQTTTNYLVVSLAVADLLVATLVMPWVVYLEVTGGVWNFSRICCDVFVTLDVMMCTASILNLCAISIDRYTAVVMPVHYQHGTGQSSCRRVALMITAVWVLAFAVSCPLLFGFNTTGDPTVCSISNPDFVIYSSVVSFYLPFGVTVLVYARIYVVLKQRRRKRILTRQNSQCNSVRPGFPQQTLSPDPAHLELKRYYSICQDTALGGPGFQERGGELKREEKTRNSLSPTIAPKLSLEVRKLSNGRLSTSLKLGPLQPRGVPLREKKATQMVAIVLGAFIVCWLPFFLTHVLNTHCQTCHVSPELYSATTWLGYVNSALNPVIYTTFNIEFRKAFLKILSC

human 5-HT2A receptor [4] = biological target: T4, human 5-HT2A receptor (Homo sapiens, UniProt P28223); details: ref [10]; cited from earlier work
T4 construct: expressed in transfected cells; host or cells: CHO-K1
T4 sequence (P28223 whole entry): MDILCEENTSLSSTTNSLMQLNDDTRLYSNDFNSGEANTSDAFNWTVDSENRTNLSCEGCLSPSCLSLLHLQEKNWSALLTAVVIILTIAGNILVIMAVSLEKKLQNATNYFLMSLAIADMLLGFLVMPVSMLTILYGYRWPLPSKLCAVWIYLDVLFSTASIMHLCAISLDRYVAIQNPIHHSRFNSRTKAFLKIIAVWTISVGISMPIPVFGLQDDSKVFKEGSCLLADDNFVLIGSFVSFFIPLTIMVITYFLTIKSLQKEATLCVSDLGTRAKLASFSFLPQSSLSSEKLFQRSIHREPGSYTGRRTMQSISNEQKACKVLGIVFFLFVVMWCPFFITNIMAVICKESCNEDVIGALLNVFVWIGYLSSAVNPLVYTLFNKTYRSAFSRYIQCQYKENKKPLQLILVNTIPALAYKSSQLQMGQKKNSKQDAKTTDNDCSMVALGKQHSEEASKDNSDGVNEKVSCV

human D2S receptor [5] = biological target: T5, human D2S receptor (Homo sapiens, UniProt P14416); details: radioligand binding; ref [10]; read-out: huD2 Ki; cited from earlier work
T5 construct: expressed in transfected cells; host or cells: CHO-K1
T5 sequence (P14416 1-414 isoform P14416-2): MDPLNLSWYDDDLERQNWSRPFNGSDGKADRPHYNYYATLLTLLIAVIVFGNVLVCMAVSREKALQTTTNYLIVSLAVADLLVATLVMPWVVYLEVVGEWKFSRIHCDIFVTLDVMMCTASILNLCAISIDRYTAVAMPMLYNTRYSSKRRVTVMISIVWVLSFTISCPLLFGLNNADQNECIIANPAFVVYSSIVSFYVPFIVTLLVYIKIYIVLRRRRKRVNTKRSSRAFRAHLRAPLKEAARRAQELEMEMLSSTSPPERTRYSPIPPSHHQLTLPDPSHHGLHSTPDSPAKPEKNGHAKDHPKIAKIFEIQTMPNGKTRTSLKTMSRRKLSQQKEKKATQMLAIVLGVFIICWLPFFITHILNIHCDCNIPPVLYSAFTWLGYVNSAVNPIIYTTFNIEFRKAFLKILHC

human D2S receptor [6] = biological target: T5, human D2S receptor; assay: Competition radioligand binding at human D2 receptor ([3H]-Spiperone, CHO-K1 membranes); details: mean ± SEM of 2–3 independent experiments in duplicate; read-out: huD2 Ki
Procedure: Experiments were carried out in membranes isolated from a CHO-K1 cell line stably overexpressing the cloned human D2S receptor.
(§1) Competition radioligand binding assays were performed on membranes isolated from cell lines stably expressing the cloned human receptors, which were either in-house or commercially available. […] Assays (250 μL assay final volume) were carried out in 96-well polypropylene plates in duplicate. In short, the suspension of appropriate membrane protein was incubated in an assay buffer with the addition of the corresponding radioligand, in the presence or absence of a tested compound or reference compound. […] After the incubation, the content of the test plates was transferred to 96 well plates with glass fiber filter GF/B or GF/C, previously pretreated with polyethyleneimine (PEI), and rapidly filtered with the use of vacuum, followed by rapid washing with cold (4 °C) wash buffer. After that, the filter plates were dried at 60 °C for 1 h. Then, 30 μL of liquid scintillation cocktail (UniverSol-ES, MP Biomedicals, Solon, OH, USA) was added to each well of the filter plates, and the radioactivity was measured in a MicroBeta^2 microplate scintillation counter (PerkinElmer, Madrid, Spain).
(§2) Competition binding curves were fitted to a one-site competition binding model (Fit Ki) with the use of Prism 7 software (GraphPad, San Diego, CA, USA). logKi (log of the equilibrium dissociation constant (Ki)) values were obtained after constraining the concentration of radioligand employed in the assay and its dissociation constant (KD) as determined in saturation radioligand binding assays.

human D2S receptor [7] = biological target: T5, human D2S receptor; assay: Functional assays of cAMP signalling at D2 receptors (CHO-K1 cells, HTRF); type: cell-based; details: for Kb: antagonism of 1 µM dopamine response; for efficacy at D2 receptor (mode of action): cAMP signaling, CHO-K1 cells
Procedure: The assessment of the activity of selected compounds at the D2 receptor was performed in cell-based functional assays of cAMP signaling, in the CHO-K1 cell line with stable expression of the cloned human D2S receptor, which was also employed for the radioligand binding assays. For D2 receptor antagonism, test compounds were dispensed into an empty 96-well plate (Isoplate-96 Black Frame White Well, PerkinElmer España SL, Madrid, Spain) with the use of the dispensing noncontact Echo 550 acoustic liquid handler (LABCYTE Inc., San Jose, CA, USA). Compounds were handled from frozen 10^−2 M stock solutions in 100% DMSO, from which serial 1000× solutions were prepared in 100% DMSO at the time of the assay, keeping vehicle concentration (0.1% DMSO) constant in the assay. Vials containing viable frozen cells were quickly thawed in a 37 °C water bath and cells were seeded into the assay plate in assay buffer (kit stimulation buffer containing 500 µM 3-isobutyl-1-methylxanthine (IBMX), which was directly added to the buffer as powder). […] After 10 min incubation at 37 °C, 10 µM forskolin was added to the corresponding wells, and incubation was continued for 5 min. After this time, cellular cAMP levels were quantified using the homogeneous time-resolved fluorescence (HTRF)-based cAMP Gs dynamic kit (Cisbio, Bioassays, Codolet, France) according to the manufacturer’s protocol. […] Basal cAMP levels were determined in control wells in the absence of compound, agonist, and forskolin.

human 5-HT1A receptor [8] = biological target: T2, human 5-HT1A receptor; assay: Competition radioligand binding at human 5-HT1A receptor ([3H]-8-OH-DPAT); details: mean ± SEM of 2 independent experiments, read-out: hu5-HT1A % inh. at 10 µM
Procedure: as §1, §2

human 5-HT7 receptor = biological target: T6, human 5-HT7 receptor (Homo sapiens, UniProt P34969); assay: Competition radioligand binding at human 5-HT7 receptor ([3H]-SB269970); details: mean ± SEM of 2 independent experiments, read-out: hu5-HT7 % inh. at 10 µM
T6 construct: expressed in transfected cells; host or cells: HEK293
T6 sequence (P34969 whole entry): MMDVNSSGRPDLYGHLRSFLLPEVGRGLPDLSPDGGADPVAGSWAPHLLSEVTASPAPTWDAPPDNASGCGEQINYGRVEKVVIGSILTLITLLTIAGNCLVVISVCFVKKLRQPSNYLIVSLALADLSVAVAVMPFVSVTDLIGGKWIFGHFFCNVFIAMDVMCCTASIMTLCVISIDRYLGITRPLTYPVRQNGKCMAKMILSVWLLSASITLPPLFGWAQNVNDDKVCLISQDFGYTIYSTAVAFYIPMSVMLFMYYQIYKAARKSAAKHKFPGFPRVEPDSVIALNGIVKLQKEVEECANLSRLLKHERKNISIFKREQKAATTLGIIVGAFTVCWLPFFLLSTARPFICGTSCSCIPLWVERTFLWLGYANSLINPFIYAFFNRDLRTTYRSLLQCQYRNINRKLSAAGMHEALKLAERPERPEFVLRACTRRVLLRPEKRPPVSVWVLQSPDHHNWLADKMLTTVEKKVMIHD
Procedure: as §1, §2

[9] = biological target: T1, human dopamine D1 receptor; assay: Competition radioligand binding at human D1 receptor ([3H]-SCH-23390); details: mean ± SEM of 2 independent experiments, read-out: huD1 % inh. at 10 µM
Procedure: as §1, §2

[10] = biological target: T3, human dopamine D3 receptor; assay: Competition radioligand binding at human D3 receptor ([3H]-Spiperone); details: mean ± SEM of 2 independent experiments, read-out: huD3 % inh. at 10 µM
Procedure: as §1, §2

human 5-HT2A receptor [11] = biological target: T4, human 5-HT2A receptor; assay: Competition radioligand binding at human 5-HT2A receptor ([3H]-Ketanserin); details: mean ± SEM of 2 independent experiments, read-out: hu5-HT2A % inh. at 10 µM
Procedure: as §1, §2

[12] = Leff-Dougall variant of Cheng-Prusoff, read-out: D2 Signalling (cAMP) Kb (Mean)

T1 sequence (P21728 whole entry): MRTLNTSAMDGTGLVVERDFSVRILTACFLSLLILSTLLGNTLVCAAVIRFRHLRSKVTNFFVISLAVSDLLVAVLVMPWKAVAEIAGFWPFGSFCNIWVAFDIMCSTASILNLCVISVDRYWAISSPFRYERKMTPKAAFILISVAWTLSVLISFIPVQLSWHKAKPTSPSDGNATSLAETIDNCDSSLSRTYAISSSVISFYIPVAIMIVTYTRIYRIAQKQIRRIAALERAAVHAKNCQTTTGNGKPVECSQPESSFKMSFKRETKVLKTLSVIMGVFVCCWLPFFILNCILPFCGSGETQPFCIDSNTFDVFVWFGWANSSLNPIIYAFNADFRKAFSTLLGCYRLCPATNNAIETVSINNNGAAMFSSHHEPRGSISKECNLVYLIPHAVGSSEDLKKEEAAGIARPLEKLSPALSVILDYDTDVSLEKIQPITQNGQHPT

SMILES: O=C(CCN1C(=O)CSc2ccccc21)Nc1ccc(C(F)(F)F)cc1 [Compound D2AAK2]
- activity at dopamine D1 receptor [1]: not active
- activity at serotonin 5-HT1A receptor (human 5-HT1A receptor [2]): not active
- activity at dopamine D3 receptor [3]: not active
- activity at serotonin 5-HT2A receptor (human 5-HT2A receptor [4]): not active
- Ki (human D2S receptor [5]): 321 ± 25 nM

SMILES: O=C(CCN1C(=O)CSc2ccccc21)Nc1ccc([N+](=O)[O-])cc1 [Compound 23, N-(4-Nitrophenyl)-3-(3-oxo-2,3-dihydro-4H-benzo[b][1,4]thiazin-4-yl)propanamide]
- Ki (human D2S receptor [6]): 724 ± 114 nM
- Kb (human D2S receptor [7]; [12]): 113 nM
- efficacy at D2 receptor (mode of action) (human D2S receptor [7]): antagonism
- inhibition at 10 µM (human 5-HT1A receptor [8]): 22 ± 3%
- inhibition at 10 µM (human 5-HT7 receptor): 0%
- inhibition at 10 µM [9]: 12 ± 2%
- inhibition at 10 µM [10]: 4 ± 3%
- inhibition at 10 µM (human 5-HT2A receptor [11]): 23 ± 3%

SMILES: Cc1ccc(NC(=O)CCN2C(=O)CSc3ccccc32)cc1 [Compound 14, 3-(3-Oxo-2,3-dihydro-4H-benzo[b][1,4]thiazin-4-yl)-N-(p-tolyl)propanamide]
- Ki (human D2S receptor [6]): 676 ± 134 nM
- Kb (human D2S receptor [7]; forskolin-stimulated cAMP, three independent experiments, read-out: D2 Signalling (cAMP) pKb (Mean ± SEM) (converted)): 117 nM
- Kb (human D2S receptor [7]; [12]): 119 nM
- efficacy at D2 receptor (mode of action) (human D2S receptor [7]): antagonism
- inhibition at 10 µM (human 5-HT1A receptor [8]): 27 ± 2%
- inhibition at 10 µM (human 5-HT7 receptor): 0%
- inhibition at 10 µM [9]: 15 ± 2%
- inhibition at 10 µM [10]: 8 ± 4%
- inhibition at 10 µM (human 5-HT2A receptor [11]): 15 ± 1%
